In patent US8809001B2, “High throughput assays for inhibitors and activators of PAQR receptors” (University of Florida Research Foundation, Inc., priority 2007, dated 2014):
Where two headings read alike, the source gives them in different places.

What was measured:
[1] = target: T1, mPRα (Homo sapiens, UniProt Q86WK9); assay: cell-based
T1 construct: Full length and truncated mPRγ and mPRα were expressed in wild type cells grown in 2% galactose from the pGREG536 vector; expressed in transfected cells; host or cells: Saccharomyces cerevisiae (BY4742 wild type; also gpa mutants), GAL1-driven plasmids (TPI1 promoter in pJK90)
T1 sequence (Q86WK9 1-346): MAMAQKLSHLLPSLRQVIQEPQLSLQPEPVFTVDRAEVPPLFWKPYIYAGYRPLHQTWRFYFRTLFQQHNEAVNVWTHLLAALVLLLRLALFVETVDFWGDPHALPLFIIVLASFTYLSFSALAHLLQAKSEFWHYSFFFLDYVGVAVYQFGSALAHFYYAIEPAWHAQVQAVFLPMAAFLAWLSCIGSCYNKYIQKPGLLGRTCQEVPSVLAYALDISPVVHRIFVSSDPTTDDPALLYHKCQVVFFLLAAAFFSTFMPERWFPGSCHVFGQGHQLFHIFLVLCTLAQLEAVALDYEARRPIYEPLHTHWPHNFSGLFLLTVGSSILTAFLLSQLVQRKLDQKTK
Text: Plasmids and primers. Human PAQRs were cloned into various vectors by PCR from commercially/publically available cDNAs. […] The OST4 open reading frame in pJK90 was replaced with the PAQR6 and mPRα open reading frames by gap repair. Primers for all cloning reactions are listed herein. Proteins expressed in pYES260 have an N-terminal 6×-histidine tag followed by a TEV protease cleavage site. Proteins expressed in pGREG536 have an N-terminal 7×-HA tag. Proteins expressed in the pRS316 vector are untagged. The pYES260, pRS316 and pGREG536 vectors allow for galactose-inducible expression via the GAL1 promoter. […] A pRS316-based plasmid containing the STE2 gene under the control of the GAL1 promoter (Feng et al., 2000) was kindly provided by Dr. Nicholas G. Davis (Wayne State University).
Assays and growth conditions. Strains were maintained using standard protocol and grown in synthetic defined (SD) media with the appropriate amino acids to match the auxotrophies of the individual strains. […] In brief, overnights of cells grown in SD-glucose media were re-inoculated into iron-deficient LIM to induce the expression of FET3. […] All ligands were added to the growth medium upon re-inoculation into LIM. For experiments in which steroids were added as ligands, steroids were added from ethanol stocks and “untreated” controls are actually treated with an equal volume of ethanol to control for vehicle effects. […] All experiments were performed at least three times and a representative experiment is shown. EC50 values were obtained using the web-based BioDataFit software using sigmoidal curve-fitting. (web site changbioscience.com/stat/ec50.html)

[2] = target: T2, mPRγ (Homo sapiens, UniProt Q9NXK6); assay: FET3-lacZ reporter repression in yeast expressing mPRγ; type: cell-based
T2 construct: Full length and truncated mPRγ and mPRα were expressed in wild type cells grown in 2% galactose from the pGREG536 vector; expressed in transfected cells; host or cells: Saccharomyces cerevisiae (BY4742 wild type; also gpa mutants), GAL1-driven plasmids
T2 sequence (Q9NXK6 1-330): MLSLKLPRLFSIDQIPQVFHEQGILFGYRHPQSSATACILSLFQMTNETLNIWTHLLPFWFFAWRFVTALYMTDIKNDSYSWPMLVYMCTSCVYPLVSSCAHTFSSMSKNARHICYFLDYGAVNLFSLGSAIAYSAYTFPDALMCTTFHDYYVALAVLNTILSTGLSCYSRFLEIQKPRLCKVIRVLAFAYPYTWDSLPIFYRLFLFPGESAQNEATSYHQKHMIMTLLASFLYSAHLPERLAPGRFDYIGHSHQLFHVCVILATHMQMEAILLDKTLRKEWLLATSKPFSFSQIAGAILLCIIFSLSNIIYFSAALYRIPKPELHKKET
Text: (§1) Plasmids and primers. Human PAQRs were cloned into various vectors by PCR from commercially/publically available cDNAs. PAQRs were cloned into the pYES260 (Melcher, 2000), pRS316 (Liu et al., 1992) or pGREG536 (Jansen et al., 2005) expression vectors using gap repair. The pJK90 plasmid containing a Dual Topology Reporter (DTR)-tagged OST4 gene driven by the constitutive TPI1 promoter was kindly provided by Dr. Gunnar von Heijne (Stockholm University) (Kim et al., 2003). The OST4 open reading frame in pJK90 was replaced with the PAQR6 and mPRα open reading frames by gap repair. Primers for all cloning reactions are listed herein. Proteins expressed in pYES260 have an N-terminal 6×-histidine tag followed by a TEV protease cleavage site. Proteins expressed in pGREG536 have an N-terminal 7×-HA tag. Proteins expressed in the pRS316 vector are untagged. The pYES260, pRS316 and pGREG536 vectors allow for galactose-inducible expression via the GAL1 promoter. […] The FET3-lacZ plasmid was previously described (Kupchak et al., 2007). Plasmids derived from pADM4 carrying hyperactive alleles of Gpa1p (Gpa1p^Q323L) (Slessareva et al., 2006) and Gpa2p (Gpa2p^Q300L) (Harashima et al., 2002) driven by the ADH1 promoter were kindly provided by Dr. Henrik Dohlman (UNC Chapel Hill). A pRS316-based plasmid containing the STE2 gene under the control of the GAL1 promoter (Feng et al., 2000) was kindly provided by Dr. Nicholas G. Davis (Wayne State University).
Assays and growth conditions. Strains were maintained using standard protocol and grown in synthetic defined (SD) media with the appropriate amino acids to match the auxotrophies of the individual strains. Low Iron Medium (LIM) contains EDTA to limit iron-bioavailability and its composition has been previously described (Kupchak et al., 2007). […] In brief, overnights of cells grown in SD-glucose media were re-inoculated into iron-deficient LIM to induce the expression of FET3. 2% galactose was used as a carbon source to induce full expression of PAQR genes driven by the GAL1 promoter, while 0.05% galactose/1.95% raffinose was used for reduced PAQR expression. All ligands were added to the growth medium upon re-inoculation into LIM. For experiments in which steroids were added as ligands, steroids were added from ethanol stocks and “untreated” controls are actually treated with an equal volume of ethanol to control for vehicle effects. Cells were allowed to grow to mid-log phase at which time the activity of the FET3 gene was monitored using a FET3-lacZ promoter-reporter construct. lacZ activities are presented as a percentage of activity seen in untreated cells expressing the appropriate empty expression vector control. For individual experiments, each data point has been done in triplicate and the error bars represent +/−1 standard deviation. All experiments were performed at least three times and a representative experiment is shown. EC50 values were obtained using the web-based BioDataFit software using sigmoidal curve-fitting. (web site changbioscience.com/stat/ec50.html)

[3] = target: T3, PAQR9 (Homo sapiens, UniProt Q6ZVX9); assay: FET3-lacZ reporter repression in yeast expressing PAQR9; type: cell-based; conditions: FET3-lacZ
T3 construct: expressed in transfected cells; host or cells: Saccharomyces cerevisiae BY4742, GAL1-driven pYES260 plasmid
T3 sequence (Q6ZVX9 1-377): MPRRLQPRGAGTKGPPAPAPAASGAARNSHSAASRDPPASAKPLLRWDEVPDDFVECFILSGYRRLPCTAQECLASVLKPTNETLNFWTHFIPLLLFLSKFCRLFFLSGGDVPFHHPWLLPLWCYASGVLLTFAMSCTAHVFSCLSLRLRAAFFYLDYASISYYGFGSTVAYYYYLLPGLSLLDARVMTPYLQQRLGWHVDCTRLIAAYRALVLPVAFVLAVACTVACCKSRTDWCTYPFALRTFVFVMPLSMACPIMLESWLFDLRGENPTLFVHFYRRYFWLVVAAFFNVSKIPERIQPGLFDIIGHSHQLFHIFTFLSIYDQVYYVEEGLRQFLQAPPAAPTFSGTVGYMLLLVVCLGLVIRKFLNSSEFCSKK
Text: as §1
Assays and growth conditions. Strains were maintained using standard protocol and grown in synthetic defined (SD) media with the appropriate amino acids to match the auxotrophies of the individual strains. Low Iron Medium (LIM) contains EDTA to limit iron-bioavailability and its composition has been previously described (Kupchak et al., 2007). […] Cells were allowed to grow to mid-log phase at which time the activity of the FET3 gene was monitored using a FET3-lacZ promoter-reporter construct. lacZ activities are presented as a percentage of activity seen in untreated cells expressing the appropriate empty expression vector control. […]

[4] = target: T4, PAQR6 (Homo sapiens, UniProt Q6TCH4); assay: FET3-lacZ reporter repression in yeast expressing PAQR6; type: cell-based; conditions: FET3-lacZ
T4 construct: expressed in transfected cells; host or cells: Saccharomyces cerevisiae BY4742, GAL1-driven pYES260 plasmid
T4 sequence (Q6TCH4 1-344): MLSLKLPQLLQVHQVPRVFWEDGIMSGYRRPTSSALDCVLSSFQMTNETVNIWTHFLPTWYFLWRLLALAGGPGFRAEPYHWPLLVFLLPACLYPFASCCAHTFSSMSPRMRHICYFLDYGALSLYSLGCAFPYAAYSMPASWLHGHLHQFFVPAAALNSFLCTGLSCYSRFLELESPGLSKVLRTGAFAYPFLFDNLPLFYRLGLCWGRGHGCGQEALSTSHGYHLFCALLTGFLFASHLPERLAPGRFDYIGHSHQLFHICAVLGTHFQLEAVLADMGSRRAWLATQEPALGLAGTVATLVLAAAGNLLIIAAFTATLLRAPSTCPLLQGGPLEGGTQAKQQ
Text: as §1, with “Plasmids derived from pADM4 carrying hyperactive alleles of Gpa1p (Gpa1p^Q323L) (Slessareva et al., 2006) and Gpa2p (Gpa2p^Q300L) (Harashima et al., 2002) driven by the ADH1 promoter were kindly provided by Dr. Henrik Dohlman (UNC Chapel Hill). A pRS316-based plasmid containing the STE2 gene under the control of the GAL1 promoter (Feng et al., 2000) was kindly provided by Dr. Nicholas G. Davis (Wayne State University).” left out
(§2) Assays and growth conditions. […] Cells were allowed to grow to mid-log phase at which time the activity of the FET3 gene was monitored using a FET3-lacZ promoter-reporter construct. lacZ activities are presented as a percentage of activity seen in untreated cells expressing the appropriate empty expression vector control. […]

[5] = test system: pFET3-397; assay: pFET3-397 lacZ reporter in yeast with AMPK activator in the growth medium; type: cell-based, Saccharomyces cerevisiae; conditions: 500 μM in the growth medium
Procedure: Most experiments were performed in a defined EDTA-containing medium known as low iron medium (LIM) (Eide et al., 1992). Iron-deficiency and repletion were generated by adding either 1 μM or 1 mM of FeCl3, respectively, to LIM. 2% galactose was used to fully induce GAL1-driven gene overexpression. Total sugar concentration was maintained at 2% by the addition of raffinose in those experiments in which the % galactose was modulated to decrease expression levels. Cells were allowed to grow to mid-log phase in LIM and β-galactosidase assays on permeabilized yeast were performed as previously described (Lyons et al., 2000). Ferroxidase activity assays on intact yeast cells followed published procedures using ferrozine as a colorimetric indicator of iron oxidation state (De Silva et al., 1995). All experiments include triplicate data points and each experiment was performed a minimum of three times. Representative experiments are shown. All error bars represent ±1 standard deviation within a single experiment. Because of the simplicity of β-galactosidase assays and the fact that Izh2p overexpression similarly affects both lacZ and ferroxidase activity, lacZ assays are shown for most experiments. For some strains with significant growth defects, such as snf1Δ, lacZ assays were not performed because of the low efficiency of co-transformation of lacZ reporter and overexpression plasmids. […]

[6] = target: T5, Ste2p GPCR (Saccharomyces cerevisiae, UniProt D6VTK4); assay: FET3-lacZ reporter in yeast overexpressing Ste2p GPCR; type: cell-based; conditions: 1 μM; overexpressed Ste2p, wild type cells (mat a), 2% galactose
T5 construct: expressed in transfected cells; host or cells: Saccharomyces cerevisiae wild type (mat a), pRS316-based GAL1-STE2 plasmid
T5 sequence (D6VTK4 1-431): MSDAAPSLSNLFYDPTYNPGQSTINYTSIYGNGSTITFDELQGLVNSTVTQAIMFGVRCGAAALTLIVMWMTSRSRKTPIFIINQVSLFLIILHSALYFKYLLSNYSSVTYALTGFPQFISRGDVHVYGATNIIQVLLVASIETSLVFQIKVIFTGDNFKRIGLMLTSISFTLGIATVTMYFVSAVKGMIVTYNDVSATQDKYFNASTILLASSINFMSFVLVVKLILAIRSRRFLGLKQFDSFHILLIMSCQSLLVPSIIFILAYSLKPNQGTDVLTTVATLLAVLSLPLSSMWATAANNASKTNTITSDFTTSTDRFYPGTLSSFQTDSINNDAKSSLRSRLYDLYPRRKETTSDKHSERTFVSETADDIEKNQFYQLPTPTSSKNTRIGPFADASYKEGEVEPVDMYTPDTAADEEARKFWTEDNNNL
Text: as §1, with “Plasmids derived from pADM4 carrying hyperactive alleles of Gpa1p (Gpa1p^Q323L) (Slessareva et al., 2006) and Gpa2p (Gpa2p^Q300L) (Harashima et al., 2002) driven by the ADH1 promoter were kindly provided by Dr. Henrik Dohlman (UNC Chapel Hill). A pRS316-based plasmid containing the STE2 gene under the control of the GAL1 promoter (Feng et al., 2000) was kindly provided by Dr. Nicholas G. Davis (Wayne State University).” left out
as §2

[7] = FET3-lacZ, steroids up to 10 μM

Compound: CC(=O)[C@@]1(O)CC[C@H]2[C@@H]3CCC4=CC(=O)CC[C@]4(C)[C@H]3CC[C@@]21C [17α-hydroxyprogesterone]
- agonist activity on mPRα (in words) [1, 7]: effective activator
- activation of mPRα, alterations at the 17 and 21 positions of the pregnane ring (in words) ([1]; further analysis of mPRα (pRS316 plasmid, 2% galactose per FIG. 7C)): similarly effective activators
- EC50 ([1]; mPRα column of Table 4, ligand alone, read-out: EC50): 10.2 nM
- EC50 ([1]; read-out: EC50 for the activation of mPRα): ~10 nM
- agonist activity on mPRγ (in words) [2, 7]: effective activator
- EC50 ([2]; mPRγ column of Table 4, ligand alone): 9.3 nM
- activation of PAQR9 (in words) [3]: can be activated
- activation of PAQR6 (in words) [4]: can be activated

Compound: NC(=O)c1ncn([C@@H]2O[C@H](CO)[C@@H](O)[C@H]2O)c1N [AICAR]
- effect on pFET3-397 activity [5]: small but reproducible decrease

Compound: α-factor
- effect on FET3 [6]: no effect
